Test results reported in US20260035338A1, “AMINO LIPID COMPOUND AND LIPID NANOPARTICLE FOR DELIVERING BIOACTIVE INGREDIENT” (SHENZHEN SHENXIN BIOTECHNOLOGY CO., LTD., priority 2022, published 2026).

Columns and labels:
[1] = tested on: immune cell populations in the spleen and PBMC; assay: Delivery efficiency of eGFP mRNA LNP to immune cell populations in spleen and peripheral blood (flow cytometry); format: in vivo; settings: eGFP mRNA encapsulating LNP, intravenous, C57BL/6 mice, 12 hours, flow cytometry (FIG. 6 to 7)
Procedure: C57BL/6 mice (3 mice per group) were intravenously injected with eGFP mRNA encapsulating LNP. After 12 hours, the mice were dissected, and the spleen and peripheral blood, were collected to prepare single-cell suspensions of various tissues and organs. After blocking with Fc blocking antibodies and surface staining with fluorescent-labeled antibodies, flow cytometry was conducted to analyze the expression levels of eGFP in various immune cell populations to confirm the delivery efficiency of lipid nanoparticles comprising different amino lipid compounds to immune cell populations in different tissues and organs.
“Blank” in FIG. 6 and FIG. 7 refers to the control group injected with 100 μL Tris buffer.

BALB/c mice = assay: In vivo delivery of Fluc mRNA-encapsulating LNP formulations, luciferase signal by In Vivo Imaging System (IVIS); settings: tail vein injection (IV) 70 μL, female BALB/c mice, 6 hours after injection; for Average number of photons (Total in-vivo flux): LNP formulation encapsulating Fluc mRNA (Lipid:DSPC:CHO-HP:M-DMG-2000 48:10:40.5:1.5); for Average number of photons (Liver) / Average number of photons (Spleen): LNP formulation encapsulating Fluc mRNA
Procedure: Animal preparation: Female BALB/c mice of 6-8 weeks old were selected and raised in an SPF grade breeding room. Animal testing was conducted in strict accordance with the guidelines of national health institutions and animal ethics requirements.
In vivo Delivery: prior to injection of the test LNP formulation, the LNP formulation was gently and repeatedly inverted to thoroughly mix the sample of the formulation. A corresponding amount of the LNP formulation was aspirated with a 1 ml insulin syringe, and the LNP formulation was injected by tail vein injection (IV), with 3 mice in duplicate per formulation. Each mouse was injected with 70 μL of the corresponding LNP formulation encapsulating the luciferase mRNA (Fluc mRNA) prepared in Experimental Example 1.
6 hours after injection of LNP formulations, mice were injected with 200 μL D-Luciferin luciferase developing substrate (Catalog No. 122799; Manufacturer: Perkin Elmer). After the substrate was injected, the mice were anesthetized with isoflurane inhalation, and the injection time of luciferase developing substrate was recorded.
The encapsulation efficiency of the lipid nanoparticle encapsulating luciferase mRNA (Fluc mRNA) with a representative amino lipid compound and the fluorescence expression intensity induced by the same are shown in Table 4, with the LNP formulation containing SM-102, 1001 or ALC-0315 as a control LNP formulation. The preparation method of the control LNP formulation was basically the same as that of the LNP formulations in Experimental Example 1, with the difference lying in that the amino lipid compounds of the present disclosure were replaced with SM-102, 1001 or ALC-0315 in the preparation of the control LNP formulation.

| SMILES | delivery efficiency to immune cell populations (eGFP expression) [1] | Average number of photons (Total in-vivo flux) (BALB/c mice) | Average number of photons (Liver) (BALB/c mice) | Average number of photons (Spleen) (BALB/c mice) |
| --- | --- | --- | --- | --- |
| CCCCCCOC(CCCOC(=O)CCCCC(CCCCC(=O)OCCCC(OCCCCCC)OCCCCCC)OC(=O)OCCCN(CC)CC)OCCCCCC [compound 2042] | different delivery preferences to different immune cells | – | – | – |
| CCCCCCOC(CCCOC(=O)CCCCCC(CCCCCC(=O)OCCCC(OCCCCCC)OCCCCCC)OC(=O)OCCCN(C)C)OCCCCCC [compound 2039] | different delivery preferences to different immune cells | 2.05E+08 | 4.26E+07 | 3.75E+07 |
| CCCCCCOC(CCCOC(=O)CCCCCCCC(CCCCCCCC(=O)OCCCC(OCCCCCC)OCCCCCC)OC(=O)OCCCN(C)C)OCCCCCC [compound 2041] | different delivery preferences to different immune cells | 2.08E+08 | 4.16E+07 | 1.07E+07 |
| CCCCCCOC(CCCOC(=O)CCCCCCCCC(CCCCCCCCC(=O)OCCCC(OCCCCCC)OCCCCCC)OC(=O)OCCCN(C)C)OCCCCCC [compound 388] | different delivery preferences to different immune cells | 1.94E+08 | 3.66E+07 | 1.34E+06 |
| CCCCCCOC(CCCCOC(=O)CCCCCCCCC(CCCCCCCCC(=O)OCCCCC(OCCCCCC)OCCCCCC)OC(=O)OCCCN(C)C)OCCCCCC [compound 2036] | – | 5.60E+07 | 1.04E+07 | 5.75E+05 |
| CCCCCCOC(CCCOC(=O)CCCCCCCCC(CCCCCCCCC(=O)OCCCC(OCCCCCC)OCCCCCC)OC(=O)OCC1CCCN(C)C1)OCCCCCC (stereo not shown) [compound 416] | – | 2.16E+08 | 5.13E+07 | 3.99E+06 |
| CCCCCCOCCCCOC(=O)CCCCCCCCC(CCCCCCCCC(=O)OCCCC(OCCCCCC)OCCCCCC)OC(=O)OCCCN(CC)CC (stereo not shown) [compound 440] | – | 2.30E+08 | 3.22E+07 | 2.14E+06 |
| CCCCCOC(CCCOC(=O)CCCCCCCCC(CCCCCCCCC(=O)OCCCC(OCCCCC)OCCCCC)OC(=O)OCCCN(CC)CC)OCCCCC [compound 387] | – | 6.66E+07 | 7.15E+06 | 6.77E+05 |
| CCCCCCOC(CCCCCOC(=O)CCCCCCCCC(CCCCCCCCC(=O)OCCCCCC(OCCCCCC)OCCCCCC)OC(=O)OCCCN(CC)CC)OCCCCCC [compound 389] | – | 2.99E+07 | 4.14E+06 | 8.58E+04 |
| CCCCCCCOC(CCCOC(=O)CCCCCCCCC(CCCCCCCCC(=O)OCCCC(OCCCCCCC)OCCCCCCC)OC(=O)OCCCN(CC)CC)OCCCCCCC [compound 383] | – | 6.10E+07 | 8.57E+06 | 1.53E+06 |
| CCCCCCOC(CCCOC(=O)CCCCCCC(CCCCCCC(=O)OCCCC(OCCCCCC)OCCCCCC)OC(=O)OCCCN(C)C)OCCCCCC [compound 2040] | – | 1.53E+08 | 2.97E+07 | 1.11E+07 |
| CCCCCCCCCOC(CCCOC(=O)CCCCCCCCC(CCCCCCCCC(=O)OCCCC(OCCCCC)OCCCCC)OC(=O)OCCCN(CC)CC)OCCCCCCCCC (stereo not shown) [compound 864] | – | 3.66E+07 | 6.58E+06 | 2.33E+05 |
| CCCCCCOC(CCCOC(=O)CCCCCCCCC(CCCCCCCCC(=O)OCCCC(OCCCCC)OCCCCC)OC(=O)OCCCN(CC)CC)OCCCCCC (stereo not shown) [compound 861] | – | 6.67E+07 | 1.17E+07 | 3.52E+05 |
| CCCCCCCCCOC(CCCOC(=O)CCCCCCCCC(CCCCCCCCC(=O)OCCCC(OCCCCCCCCC)OCCCCCCCCC)OC(=O)OCCCN(C)C)OCCCCCCCCC [compound 849] | – | 2.67E+07 | 4.12E+06 | 1.82E+05 |
| CCCCCCCOC(CCCOC(=O)CCCCCCCCC(CCCCCCCCC(=O)OCCCC(OCCCCC)OCCCCC)OC(=O)OCCCN(C)C)OCCCCCCC (stereo not shown) [compound 851] | – | 1.28E+08 | 2.21E+07 | 1.93E+06 |
| CCCCCCCCOC(CCCOC(=O)CCCCCCCCC(CCCCCCCCC(=O)OCCCC(OCCCCCCCC)OCCCCCCCC)OC(=O)OCCCN(CC)CC)OCCCCCCCC [compound 859] | – | 2.31E+07 | 3.71E+06 | 7.21E+04 |
| CCCCC/C=C\C/C=C\CCCCCCCC(=O)OCC(COCCCCC(OCCCCCCCC)OCCCCCCCC)COC(=O)OCCCN(CC)CC (stereo not shown) [compound 1248] | – | 8.20E+07 | 1.79E+07 | 3.48E+06 |
| CCCCCCOC(CCCOC(=O)CCCCCCCCC(CCCCCCCCC(=O)OCCCC(OCCCCCC)OCCCCCC)OC(=O)N(CCCC(=O)OCCCCC)CCCN(C)C)OCCCCCC [compound 380] | – | 4.05E+08 | 7.25E+07 | 6.79E+07 |
| CCCCCCOC(CCCOC(=O)CCCCCCCCC(CCCCCCCCC(=O)OCCCC(OCCCCCC)OCCCCCC)N(CCCN(C)C)C(C)=O)OCCCCCC [compound 451] | – | 2.86E+07 | 4.63E+06 | 1.74E+07 |
| CCCCCCCOC(CCCOC(=O)CCCCCCCCC(CCCCCCCCC(=O)OCCCC(OCCCCCC)OCCCCCC)OC(=O)OCCCN(CC)CC)OCCCCCCC (stereo not shown) [compound 865] | – | 4.34E+07 | 8.60E+06 | 3.25E+05 |
| CCCCCCOC(CCCOC(=O)CCCCCCCCC(CCCCCCCCC(=O)OCCCCCCCC(=O)OCC)OC(=O)OCCCN(CC)CC)OCCCCCC (stereo not shown) [compound 436] | – | 2.50E+07 | 6.68E+06 | 5.08E+05 |
| CCCCC/C=C\C/C=C\CCCCCCCC(=O)OCC(COC(=O)OCCCC(OCCCCCCCC)OCCCCCCCC)COC(=O)OCCCN(CC)CC (stereo not shown) [compound 1246] | – | 4.92E+07 | 6.85E+06 | 3.83E+06 |
| CCCCCCC#CCCOC(=O)CCCCCCCOC(=O)CCCCCCCCC(CCCCCCCCC(=O)OCCCC(OCCCCCC)OCCCCCC)OC(=O)OCCCN(CC)CC (stereo not shown) [compound 437] | – | 1.66E+07 | 2.66E+06 | 2.62E+06 |
| CCCCCCCCOC(CCCOC(=O)CCCCCCCCC(CCCCCCCCC(=O)OCCCC(OCCCCC)OCCCCC)OC(=O)OCCCN(CC)CC)OCCCCCCCC (stereo not shown) [compound 863] | – | 4.43E+07 | 7.13E+06 | 2.88E+05 |
